Results: paper PMC12246421 (NPJ Precision Oncology, 2025)

Molecular target: METTL21A (Methyltransferase 21A) (Homo sapiens, UniProt Q8WXB1)
Experiment: SPR
Type: binding

Chain of METTL21A (Methyltransferase 21A) (Q8WXB1 whole entry): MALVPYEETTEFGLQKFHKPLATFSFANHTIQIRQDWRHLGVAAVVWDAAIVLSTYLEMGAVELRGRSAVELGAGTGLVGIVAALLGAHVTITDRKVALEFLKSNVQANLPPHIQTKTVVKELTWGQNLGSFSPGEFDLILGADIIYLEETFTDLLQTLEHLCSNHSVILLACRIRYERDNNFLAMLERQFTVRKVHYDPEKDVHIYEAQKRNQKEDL

Kd: 122 µM
SMILES: O=c1c(-c2ccc(O[C@@H]3O[C@H](CO)[C@@H](O)[C@H](O)[C@H]3O)cc2)coc2cc(O)cc(O)c12 [Sop, sophoricoside]
